Data published in US20030134353A1, “Recombinant dimorphic fungal cell” (Bioteknologisk Institut, priority 2001, published 2003).

Tests used:
[1] = system: M. circinelloides; details: van Heeswijck et al., 1988; acid pH (3.2 or 4.5); cited from earlier work
[2] = system: pkaR expression; assay: Northern blot analysis of pkaR expression during aerobic growth after dbcAMP addition; type: cell-based, M. circinelloides; details: for Total Counts (pkaR mRNA, background subtracted): aerobic growth
Procedure: M. circinelloides syn. racemosus R7B (ATCC 90680), a leucine auxotrophic strain of ATCC1216b, was used as a recipient for transformation experiments and for expression studies. Cultures were grown at 28° C. in either YPG (Bartnicki-Garcia and Nickerson, 1962), YNB (Lasker and Borgia, 1980), Vogel's medium supplemented with 1.5 g glutamic acid per litre (Hoekstra, 1996) or SIV medium with 1.5 g glutamic acid per litre in place of L-aspargine (Eslava and Alvarez, 1996). Vogel's and SIV media were supplemented with 2 g casamino acids (Difco, Detroit, Mich., USA) per litre. All media were supplemented with 1 mg/L niacin amide and 1 mg/L thiamine chloride. When appropriate, 20 mg/L leucine was added to allow for the growth of strain R7B. For the analysis of pkaR expression, 5 mM dbcAMP (Sigma) was added to aerobic growing cultures during exponential growth. The BBL GasPak system (Becton Dickinson, Sparks, Md., USA) was used for anaerobic incubation of strains on solid medium. E. coli DH5α was used for DNA manipulations.
RNA isolation was carried out using a FastRNA kit (BIO101 Inc., CA, USA) and extraction with acid Phenol:chloroform (Sigma). For Northern blot analysis, total RNA was loaded onto formaldehyde containing agarose gel, subjected to electrophoresis, transferred to GeneScreen membrane (Du Pont) and hybridised as described (Arnau et al., 1996). Expression levels were meassured using a Cyclone Storage Phosphor System (Packard) and the OptiQuant image analysis software. A linear dynamic range of 5 orders of magnitude with only a 5% standard deviation is possible with the above apparatus. Dilution series of the RNA preparations (typically 20, 10 and 5 μg total RNA per sample) were used to estimate induction levels. Primer extension was carried out using a radioactively end-labelled primer; complementary to position 98-78 downstream of the pkaR ATG start codon. A sequence ladder was obtained using the same primer and pEUKA4-pkaR DNA as template using the Thermo Sequenase Radiolabeled Terminator Cycle Sequencing Kit (USB-Amersham). Probe labelling was performed using Ready-To-Go DNA Labelling Beads (Amersham Pharmacia Biotech). Unincorporated nucleotides were removed using a NICK column (Pharmacia).
In a complementary study, the expression of pkaR was followed during aerobic (filamentous) growth before and after the addition of dbcAMP. This cAMP analogue is membrane permeable and its addition results in PKA activation.

[3] = system: Mucor circinelloides strain R7B; assay: Screening of antibiotic sensitivity on YNB agar at pH 6.0; type: cell-based; details: YNB agar pH 6.0, 4 days at 28° C.
Procedure: Spores of Mucor circinelloides strain R7B were plated on to YNB agar pH 6.0 supplemented with leucine (upper left plate in all panels) or the same medium supplemented with 50, 100 or 250 μg/ml of the antibiotic (geneticin, kanamycin, hygromycin B or neomycin) as indicated in each panel. After 4 days at 28° C., plates were examined and photographed.
However, the conditions used for the above screening—especially the acid pH used (3.2 or 4.5)—may result in the inactivation of the antibiotic. Therefore, we performed an initial screening of antibiotic sensitivity using pH 6.0. Under these conditions, M. circinelloides is sensitive to all four antibiotic tested.

In the case of `CCCCNC(=O)n1c(NC(=O)OC)nc2ccccc21` [benomyl], the “Sensitivity of M. circinelloides to antibiotic as reported” value (shortened to “Sensitivity of M. circinelloides”) [1] is listed as “insensitive”.
For `CCCC(=O)Nc1ncnc2c1ncn2[C@@H]1O[C@@H]2COP(=O)(O)O[C@H]2[C@H]1OC(=O)CCC` [dbcAMP], the “Total Counts (pkaR mRNA, background subtracted)” value (from here on “Total Counts”) ([2]; 15 min after addition of 5 mM dbcAMP) was 951, the “Total Counts” value ([2]; 30 min after addition of 5 mM dbcAMP) was 1728 and the “Total Counts” value ([2]; 60 min after addition of 5 mM dbcAMP) was 2235. The “Total Counts” value ([2]; 120 min after addition of 5 mM dbcAMP) was 2392, the “Total Counts” value ([2]; 180 min after addition of 5 mM dbcAMP) was 2966 and the “Induction of pkaR expression compared to the level before dbcAMP addition” value ([2]; after three hours) was “sevenfold”.
With `CN[C@H]1C[C@@H](N)[C@H](O)[C@@H](O[C@@H]2O[C@H](CO)[C@H](O)[C@@H]3OC4(O[C@H]23)O[C@H]([C@@H](N)CO)[C@H](O)[C@H](O)[C@H]4O)[C@@H]1O` (some centres unmarked) [hygromycin B] the “Growth of M. circinelloides on antibiotic-supplemented plates” value ([3]; 50 μg/ml antibiotic) was “tiny colonies” and the “Growth of M. circinelloides on antibiotic-supplemented plates” value ([3]; 100 μg/ml antibiotic) was “no growth”.
In the case of `CC[C@H]1/C=C/C=C/C[C@@H](C)[C@H](O)[C@@](C)(O)C(=O)[C@@H](C)[C@H](O)[C@@H](C)C(=O)[C@@H](C)[C@H](O)[C@@H](C)/C=C/C(=O)O[C@@H]2[C@H](C)[C@H](CC1)O[C@]1(CC[C@H](C)[C@H](C[C@@H](C)O)O1)[C@H]2C` [oligomycin], the “Sensitivity of M. circinelloides” value [1] is listed as “insensitive”.
For neomycin, the “Sensitivity of M. circinelloides” value [1] is given as “insensitive”.
